These results are taken from patent US9150574B2, “Enzyme inhibitor compounds” (Proximagen Limited, priority 2011, dated 2015).

The structures appear in SMILES notation. Where a name gives a salt, the structure may show the parent alone.

This experiment has as its target T1, purified recombinantly expressed human SSAO (Homo sapiens, UniProt Q16853).
T1 construct: made in house
T1 sequence (Q16853 29-763 limits assumed): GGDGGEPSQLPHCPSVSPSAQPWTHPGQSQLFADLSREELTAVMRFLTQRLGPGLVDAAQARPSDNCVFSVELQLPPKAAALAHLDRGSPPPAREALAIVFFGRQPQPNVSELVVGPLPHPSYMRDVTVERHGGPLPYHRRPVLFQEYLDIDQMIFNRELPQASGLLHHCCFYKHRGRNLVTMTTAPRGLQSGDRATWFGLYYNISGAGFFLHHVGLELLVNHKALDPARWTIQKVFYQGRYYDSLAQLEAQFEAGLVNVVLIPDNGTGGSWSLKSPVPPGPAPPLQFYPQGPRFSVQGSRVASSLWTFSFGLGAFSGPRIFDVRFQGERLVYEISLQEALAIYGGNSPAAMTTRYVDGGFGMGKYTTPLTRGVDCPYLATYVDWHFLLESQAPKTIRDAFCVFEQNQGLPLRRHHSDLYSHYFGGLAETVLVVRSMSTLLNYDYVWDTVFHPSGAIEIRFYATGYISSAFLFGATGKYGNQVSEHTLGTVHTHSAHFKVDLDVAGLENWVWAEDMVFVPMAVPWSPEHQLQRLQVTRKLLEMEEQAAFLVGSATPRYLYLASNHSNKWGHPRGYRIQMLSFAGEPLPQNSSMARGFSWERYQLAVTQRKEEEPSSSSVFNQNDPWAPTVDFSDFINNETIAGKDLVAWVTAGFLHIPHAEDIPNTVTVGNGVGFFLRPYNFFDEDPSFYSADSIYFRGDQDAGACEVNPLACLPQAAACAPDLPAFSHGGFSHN
The experiment is described as follows: SSAO enzyme inhibition assay (benzylamine substrate; hydrogen peroxide/HRP-coupled or 14C aldehyde detection). Format: biochemical. The conditions noted are these: human recombinant SSAO, RT, benzylamine as substrate; read-out: SSAO inhibitory activity IC50. Here is the method:
All primary assays were performed at RT. with purified recombinantly expressed human SSAO. Enzyme was prepared essentially as described in Ohman et al. (Protein Expression and Purification 46 (2006) 321 331). In addition, secondary- and selectivity assays were performed using SSAO prepared from various tissues or purified rat recombinant SSAO. The enzyme activity was assayed with benzylamine as substrate by measuring either benzaldehyde production, using ^14C-labeled substrate, or by utilizing the production of hydrogen peroxide in a horseradish peroxidase (HRP) coupled reaction. Briefly, test compounds were dissolved in dimethyl sulfoxide (DMSO) to a concentration of 10 mM. Dose-response measurements were assayed by either creating 1:10 serial dilutions in DMSO to produce a 7 point curve or by making 1:3 serial dilutions in DMSO to produce 11 point curves. The top concentrations were adjusted depending on the potency of the compounds and subsequent dilution in reaction buffer yielded a final DMSO concentration ≦2%.
In a horseradish peroxidase (HRP) coupled reaction, hydrogen peroxide oxidation of 10-acetyl-3,7-dihydroxyphenoxazine produced resorufin, which is a highly fluorescent compound (Zhout and Panchuk-Voloshina. Analytical Biochemistry 253 (1997) 169-174; Amplex® Red Hydrogen Peroxide/peroxidase Assay kit, Invitrogen A22188). Enzyme and compounds in 50 mM sodium phosphate, pH 7.4 were set to pre-incubate in flat-bottomed microtiter plates for approximately 15 minutes before initiating the reaction by addition of a mixture of HRP, benzylamine and Amplex reagent. Benzylamine concentration was fixed at a concentration corresponding to the Michaelis constant, determined using standard procedures. Fluorescence intensity was then measured at several time points during 1-2 hours, exciting at 544 nm and reading the emission at 590 nm. For the human SSAO assay final concentrations of the reagents in the assay wells were: SSAO enzyme 1 μg/ml, benzylamine 100 μM, Amplex reagent 20 μM, HRP 0.1 U/mL and varying concentrations of test compound. The inhibition was measured as % decrease of the signal compared to a control without inhibitor (only diluted DMSO). The background signal from a sample containing no SSAO enzyme was subtracted from all data points. Data was fitted to a four parameter logistic model and IC50 values were calculated using the GraphPad Prism 4 or XLfit 4 programs.
SSAO activity was assayed using 14C-labeled benzylamine and analysed by measuring radioactive benzaldehyde. In a white 96-well optiplate (Packard), 20 μL of diluted test compound was pre-incubated at RT. with 20 μL SSAO enzyme for approximately 15 minutes with continuous agitation. All dilutions were made with PBS. The reaction was initiated by adding 20 μL of the benzylamine substrate solution containing [7-14C] Benzylamine hydrochloride (CFA589, GE Healthcare). The plate was incubated for 1 hour as above after which the reaction was stopped by acidification (10 μL 1 M HCl). Then 90 μL Micro Scint-E solution (Perkin-Elmer) was added to each well and the plate was continuously mixed for 15 minutes. Phase separation occurred instantly and activity was read in a Topcount scintillation counter (Perkin-Elmer). In the final reaction well, the human recombinant SSAO concentration was 10 μg/ml. In order to optimize sensitivity, the substrate concentration was decreased as compared to the HRP coupled assay in order to get a higher fraction of radioactive product. In the human SSAO assay, benzylamine concentration was 40 μM (0.2 μCi/mL). Data was analysed as above.
Broadly, the IC50 is the midpoint of a concentration-inhibition curve. As for `NCCN1CCC(c2cn(-c3ccc(Cl)cc3)c3cnccc23)CC1` [Example 1, 2,2,2-Trifluoroacetic acid; 2-{4-[1-(4-chlorophenyl)-1H-pyrrolo[2,3-c]pyridin-3-yl]piperidin-1-yl}ethan-1-amine], the concentration for half-maximal inhibition (IC50) is less than 0.1 µM.

For `NCCCOC(=O)N1CCC(c2cn(-c3ccc(Cl)cc3)c3cnccc23)CC1` [Example 2, 3-Aminopropyl 4-[1-(4-chlorophenyl)-1H-pyrrolo[2,3-c]pyridin-3-yl]piperidine-1-carboxylate], the half-inhibitory concentration (IC50) was less than 0.1 µM.

`CN(C)CCCC(=O)N1CCC(c2cn(-c3ccc(Cl)cc3)c3cnccc23)CC1` [Example 3, 1-{4-[1-(4-Chlorophenyl)-1H-pyrrolo[2,3-c]pyridin-3-yl]piperidin-1-yl}-4-(dimethylamino)butan-1-one; 2,2,2-trifluoroacetic acid]: the IC50 is less than 0.1 µM.

On to `NCCCCC(=O)N1CCC(c2cn(-c3ccc(Cl)cc3)c3cnccc23)CC1` [Example 4, 5-Amino-1-{4-[1-(4-chlorophenyl)-1H-pyrrolo[2,3-c]pyridin-3-yl]piperidin-1-yl}pentan-1-one], for which the IC50 is less than 0.1 µM.

As for `NCCNC(=O)N1CCC(c2cn(-c3ccc(Cl)cc3)c3cnccc23)CC1` [Example 5, N-(2-Aminoethyl)-4-[1-(4-chlorophenyl)-1H-pyrrolo[2,3-c]pyridin-3-yl]piperidine-1-carboxamide], the half-maximal inhibitory concentration (IC50) is less than 0.1 µM.

As for `NCCCNC(=O)N1CCC(c2cn(-c3ccc(Cl)cc3)c3cnccc23)CC1` [Example 6, N-(3-Aminopropyl)-4-[1-(4-chlorophenyl)-1H-pyrrolo[2,3-c]pyridin-3-yl]piperidine-1-carboxamide], the IC50 was less than 0.1 µM.

With `CN(C)CCCNC(=O)N1CCC(c2cn(-c3ccc(Cl)cc3)c3cnccc23)CC1` [Example 7, 4-[1-(4-Chlorophenyl)-1H-pyrrolo[2,3-c]pyridin-3-yl]-N-[3-(dimethylamino)propyl]piperidine-1-carboxamide], the half-inhibitory concentration (IC50) was less than 0.1 µM.

For `O=C(N1CCNCC1)N1CCC(c2cn(-c3ccc(Cl)cc3)c3cnccc23)CC1` [Example 8, 1-({4-[1-(4-Chlorophenyl)-1H-pyrrolo[2,3-c]pyridin-3-yl]piperidin-1-yl}carbonyl)piperazine], the IC50 is less than 0.1 µM.

With `O=C(N1CCOCC1)N1CCC(c2cn(-c3ccc(Cl)cc3)c3cnccc23)CC1` [Example 9, 4-({4-[1-(4-Chlorophenyl)-1H-pyrrolo[2,3-c]pyridin-3-yl]piperidin-1-yl}carbonyl)morpholine], the half-maximal inhibitory concentration (IC50) was in the range of 0.1 to 0.5 µM.

Turning to `O=C(N1CCCNCC1)N1CCC(c2cn(-c3ccc(Cl)cc3)c3cnccc23)CC1` [Example 10, 1-({4-[1-(4-Chlorophenyl)-1H-pyrrolo[2,3-c]pyridin-3-yl]piperidin-1-yl}carbonyl)-1,4-diazepane], the IC50 was less than 0.1 µM.

In the case of `CCOC(=O)C1CCN(c2nn(-c3ccc(Cl)cc3)c3cnccc23)CC1` [Example 11, Ethyl 1-[1-(4-chlorophenyl)-1H-pyrazolo[3,4-c]pyridin-3-yl]piperidine-4-carboxylate], the IC50 was 0.5 to 2.5 µM.

For the compound `CCOC(=O)C1CCN(c2nn(-c3ccc(C)cc3)c3cnccc23)CC1` [Example 12, Ethyl 1-[1-(4-methylphenyl)-1H-pyrazolo[3,4-c]pyridin-3-yl]piperidine-4-carboxylate], the IC50 was 0.1 to 0.5 µM.

For the compound `O=C(O)C1CCN(c2nn(-c3ccc(Cl)cc3)c3cnccc23)CC1` [Example 13, 1-[1-(4-Chlorophenyl)-1H-pyrazolo[3,4-c]pyridin-3-yl]piperidine-4-carboxylic acid hydrochloride], the IC50 fell in the range of 0.1 to 0.5 µM.

`NCCNC(=O)C1CCN(c2nn(-c3ccc(Cl)cc3)c3cnccc23)CC1` [Example 14, N-(2-Aminoethyl)-1-[1-(4-chlorophenyl)-1H-pyrazolo[3,4-c]pyridin-3-yl]piperidine-4-carboxamide dihydrochloride]: the IC50 was in the range of 0.1 to 0.5 µM.

In the case of `O=C(C1CCN(c2nn(-c3ccc(Cl)cc3)c3cnccc23)CC1)N1CCOCC1` [Example 15, 4-({1-[1-(4-Chlorophenyl)-1H-pyrazolo[3,4-c]pyridin-3-yl]piperidin-4-yl}carbonyl) morpholine], the half-inhibitory concentration (IC50) was 0.5 to 2.5 µM.

Turning to `O=C(C1CCN(c2nn(-c3ccc(Cl)cc3)c3cnccc23)CC1)N1CCNCC1` [Example 16, 1-({1-[1-(4-Chlorophenyl)-1H-pyrazolo[3,4-c]pyridin-3-yl]piperidin-4-yl}carbonyl)piperazine dihydrochloride], the concentration for half-maximal inhibition (IC50) was 0.1 to 0.5 µM.

With `Cc1ccc(-n2nc(N3CCOCC3CO)c3ccncc32)cc1` (stereo not shown) [Example 17, {4-[1-(4-Methylphenyl)-1H-pyrazolo[3,4-c]pyridin-3-yl]morpholin-3-yl}methanol], the IC50 was less than 0.1 µM.

Take `Cc1ccc(-n2nc(N3CCOC(CO)C3)c3ccncc32)cc1` (stereo not shown) [Example 18, {4-[1-(4-Methylphenyl)-1H-pyrazolo[3,4-c]pyridin-3-yl]morpholin-2-yl}methanol]: the IC50 was less than 0.1 µM.

As to `OC[C@@H]1COCCN1c1nn(-c2ccc(Cl)cc2)c2cnccc12` [Example 19, [(3R)-4-[1-(4-Chlorophenyl)-1H-pyrazolo[3,4-c]pyridin-3-yl]morpholin-3-yl]methanol], the IC50 was less than 0.1 µM.

For the compound `COC(=O)C1COCCN1c1nn(-c2ccc(Cl)cc2)c2cnccc12` (stereo not shown) [Example 20, Methyl 4-[1-(4-chlorophenyl)-1H-pyrazolo[3,4-c]pyridin-3-yl]morpholine-3-carboxylate], the IC50 was in the range of 0.1 to 0.5 µM.

On to `NCCNC(=O)C1COCCN1c1nn(-c2ccc(Cl)cc2)c2cnccc12` (stereo not shown) [Example 21, N-(2-Aminoethyl)-4-[1-(4-chlorophenyl)-1H-pyrazolo[3,4-c]pyridin-3-yl]morpholine-3-carboxamide], for which the concentration for half-maximal inhibition (IC50) is less than 0.1 µM.

`OCCC1COCCN1c1nn(-c2ccc(Cl)cc2)c2cnccc12` (stereo not shown) [Example 22, 2-{4-[1-(4-Chlorophenyl)-1H-pyrazolo[3,4-c]pyridin-3-yl]morpholin-3-yl}ethan-1-ol]: the IC50 was less than 0.1 µM.

As to `COC(=O)C1CCCCN1c1nn(-c2ccc(Cl)cc2)c2cnccc12` (stereo not shown) [Example 23, Methyl 1-[1-(4-chlorophenyl)-1H-pyrazolo[3,4-c]pyridin-3-yl]piperidine-2-carboxylate], the IC50 was in the range of 0.5 to 2.5 µM.

Consider `NCCNC(=O)C1CCCCN1c1nn(-c2ccc(Cl)cc2)c2cnccc12` (stereo not shown) [Example 24, N-(2-Aminoethyl)-1-[1-(4-chlorophenyl)-1H-pyrazolo[3,4-c]pyridin-3-yl]piperidine-2-carboxamide dihydrochloride], for which the IC50 was less than 0.1 µM.

`O=C(C1CCCCN1c1nn(-c2ccc(Cl)cc2)c2cnccc12)N1CCNCC1` (stereo not shown) [Example 25, 1-({1-[1-(4-Chlorophenyl)-1H-pyrazolo[3,4-c]pyridin-3-yl]piperidin-2-yl}carbonyl) piperazine]: the IC50 was less than 0.1 µM.
